Laboratory results published in patent US8735406B2, “8-oxodihydropurine derivative” (Dainippon Sumitomo Pharma Co., Ltd., priority 2009, dated 2014).
Like-named read-outs stand apart in the source and are kept apart here.

Target: T1, FAAH (Rattus norvegicus, UniProt P97612)
T1 construct: Preparation of Rat Brain Membranes Preparations (FAAH Enzyme Solution); from tissue; host or cells: rat cerebrum (brain membrane preparation)
T1 sequence (P97612 1-579): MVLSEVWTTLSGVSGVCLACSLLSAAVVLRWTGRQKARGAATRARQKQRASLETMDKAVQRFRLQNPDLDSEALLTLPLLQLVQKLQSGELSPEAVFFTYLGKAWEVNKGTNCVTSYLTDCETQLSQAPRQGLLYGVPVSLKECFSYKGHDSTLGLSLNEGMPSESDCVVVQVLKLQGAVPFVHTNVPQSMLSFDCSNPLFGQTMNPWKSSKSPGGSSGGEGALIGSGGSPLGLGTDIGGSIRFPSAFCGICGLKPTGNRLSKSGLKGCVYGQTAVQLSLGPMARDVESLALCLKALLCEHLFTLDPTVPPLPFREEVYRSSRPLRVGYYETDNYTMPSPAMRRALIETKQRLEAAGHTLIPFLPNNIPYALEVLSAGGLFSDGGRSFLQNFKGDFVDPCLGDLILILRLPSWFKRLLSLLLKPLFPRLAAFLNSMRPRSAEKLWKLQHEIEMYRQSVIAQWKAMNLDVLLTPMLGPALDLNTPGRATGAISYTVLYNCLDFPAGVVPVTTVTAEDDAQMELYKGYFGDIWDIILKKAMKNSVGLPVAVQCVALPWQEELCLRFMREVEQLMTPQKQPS
Experiment: Determination of FAAH inhibitory activity in rat (rat brain membrane preparations, [3H]-anandamide hydrolysis)
Type: biochemical
Details: for IC50: test substance 0.1 nM to 1 μM; for inhibition at 0.1 µM: read-out: FAAH Inhibition, Inhibition Rate at 100 nM
Method: Determination of FAAH Inhibitory Activity in Rat
The preparation of rat brain membranes preparations and the determination of FAAH inhibitory activity were carried out according to the Jonsson et al. method [Br. J. Pharmacol., 133, 1263 (2001)].
(1) Preparation of Rat Brain Membranes Preparations (FAAH Enzyme Solution)
The cerebrum was extracted from rats and was freeze-stored at −80° C. To the frozen cerebrum was added 4° C. enzyme homogenization buffer (20 mM HEPES-buffer pH 7.0, 1 mM MgCl2) and the mixture was homogenized using a homogenizer in ice and the homogenates were centrifuged (36,000×g for 20 minutes). After repeating operations of homogenization and centrifugation, the tissue pellets were re-suspended with 4° C. enzyme homogenization buffer. The re-suspensions were incubated at 37° C. for 15 minutes and were centrifuged (36,000×g for 20 minutes), and the resulting tissue membranes were then re-suspended with enzyme solution preparation buffer (50 mM Tris-HCl buffer pH 7.4, 1 mM EDTA, 3 mM MgCl2). The protein concentration in the resulting membrane preparations were determined according to a colorimetry method (BCA Protein Assay: Pierce Inc.) and the preparations were freeze-stored at −80° C. until used for assay.
(2) Screening of Substances for Inhibiting FAAH Activity
To the above membrane preparations (final concentration 100 μg/mL) were added a solution of test substances in DMSO (final concentration in DMSO 1%) and an assay buffer (for final preparation; 22 mM Tris-HCl (pH 7.6), 1.4 mM EDTA, 1.5% BSA, 0.6 mM MgCl2) and the resulting mixtures were preincubated at 37° C. for 10 minutes. Thereto was added a substrate solution (for final preparation; 2 nM [^3H]-Anandamide (American Radiolabeled Chemicals Inc.)+2 μM Anandamide (Sigma-Aldrich Co.)) (final assay volume of 200 μL) and the resulting mixtures were incubated at 37° C. for 10 minutes. Here in control experiment, DMSO was added instead of the solution of test substance in DMSO. Also in blank experiment, DMSO was added instead of the solution of test substance in DMSO and an enzyme solution preparation buffer was also added instead of the membrane preparations. After the incubation, thereto was added a 400 μL ice-cooled solution of chloroform and methanol (1:1 ratio by volume) and the resulting mixtures were stirred. An ethanolamine (ethanolamine-1-[^3H]) as a decomposed product was separated into an upper layer (water/methanol layer) by centrifugation (1,000×g for 10 minutes). The upper layer 200 μL was transferred into 96 well Deepwell Luma Plate-96 (PerkinElmer Inc.) and the radioactivity was measured by microplate scintillation counter (TopCount NXT™: […].). The substances showing a lower measured value compared to those of control were selected as the compound having a FAAH inhibitory activity.
(3) Determination of IC50 Value
The test substances were prepared such that the final concentration of the compounds is within the range of 0.1 nM to 1 μM and were then examined on the effect on FAAH activity according to the above-mentioned protocol.

[1] = rat brain membrane preparations, read-out: FAAH Inhibition IC50
[2] = rat brain membrane preparations, 100 nM test substance

Row | Compound | IC50 [1] [µM] | inhibition at 0.1 µM [2] [%] | inhibition at 0.1 µM [%] | IC50 (FAAH Inhibition IC50, rat brain membrane preparations) [µM]
1 | COc1cccc(-c2ncc3c(n2)n(C)c(=O)n3C(=O)N(C)CCc2cccc(F)c2)c1 [Example 75, N-[2-(3-Fluorophenyl)ethyl]-2-(3-methoxyphenyl)-N,9-dimethyl-8-oxo-8,9-dihydro-7H-purine-7-carboxamide] | < 0.001 | – | 103 | –
2 | COc1cccc(-c2ncc3c(n2)n(C)c(=O)n3C(=O)N(C)CCc2cccc(Cl)c2)c1 [Example 76, N-[2-(3-Chlorophenyl)ethyl]-2-(3-methoxyphenyl)-N,9-dimethyl-8-oxo-8,9-dihydro-7H-purine-7-carboxamide] | – | – | 102 | 0.003
3 | COc1cccc(-c2ncc3c(n2)n(C)c(=O)n3C(=O)N(C)CCOc2ccc(Cl)cc2)c1 [Example 77, N-[2-(4-Chlorophenoxy)ethyl]-2-(3-methoxyphenyl)-N,9-dimethyl-8-oxo-8,9-dihydro-7H-purine-7-carboxamide] | 0.003 | 116 | – | –
4 | COc1cccc(-c2ncc3c(n2)n(C)c(=O)n3C(=O)N2CCN(Cc3ccc(F)cc3)CC2)c1 [Example 84, 7-{[4-(4-Fluorobenzyl)piperazin-1-yl]carbonyl}-2-(3-methoxyphenyl)-9-methyl-7,9-dihydro-8H-purine-8-one] | 0.013 | – | 98 | –
5 | COc1cccc(-c2ncc3c(n2)n(C)c(=O)n3C(=O)N2CCN(Cc3cccc(F)c3)CC2)c1 [Example 85, 7-{[4-(3-Fluorobenzyl)piperazin-1-yl]carbonyl}-2-(3-methoxyphenyl)-9-methyl-7,9-dihydro-8H-purine-8-one] | 0.031 | – | 93 | –
6 | COc1cccc(-c2ncc3c(n2)n(C)c(=O)n3C(=O)N2CCN(Cc3ccc(Cl)cc3)CC2)c1 [Example 86, 7-{[4-(4-Chlorobenzyl)piperazin-1-yl]carbonyl}-2-(3-methoxyphenyl)-9-methyl-7,9-dihydro-8H-purine-8-one] | 0.022 | – | 96 | –
7 | COc1cccc(-c2ncc3c(n2)n(C)c(=O)n3C(=O)N2CCN(Cc3cccc(Cl)c3)CC2)c1 [Example 87, 7-{[4-(3-Chlorobenzyl)piperazin-1-yl]carbonyl}-2-(3-methoxyphenyl)-9-methyl-7,9-dihydro-8H-purine-8-one] | 0.01 | – | 99 | –
8 | COc1cccc(-c2ncc3c(n2)n(C)c(=O)n3C(=O)N2CCN(Cc3ccc(C(F)(F)F)cc3)CC2)c1 [Example 89, 2-(3-Methoxyphenyl)-9-methyl-7-({4-[4-(trifluoromethyl)benzyl]piperazin-1-yl}carbonyl)-7,9-dihydro-8H-purine-8-one] | 0.044 | – | 92 | –
9 | COc1cccc(-c2ncc3c(n2)n(C)c(=O)n3C(=O)N(C)CCc2ccc(C(F)(F)F)cc2)c1 [Example 92, 2-(3-Methoxyphenyl)-N,9-dimethyl-8-oxo-N-{2-[4-(trifluoromethyl)phenyl]ethyl}-8,9-dihydro-7H-purine-7-carboxamide] | 0.004 | 103 | – | –
10 | COc1ccc(CCN(C)C(=O)n2c(=O)n(C)c3nc(-c4cccc(OC)c4)ncc32)cc1 [Example 93, 2-(3-Methoxyphenyl)-N-[2-(4-methoxyphenyl)ethyl]-N,9-dimethyl-8-oxo-8,9-dihydro-7H-purine-7-carboxamide] | 0.005 | – | 100 | –
11 | COc1cccc(-c2ncc3c(n2)n(C)c(=O)n3C(=O)N2CC=C(/C=C/c3ccc(Cl)cc3)CC2)c1 [Example 94, 7-({4-[(E)-2-(4-Chlorophenyl)ethenyl]-3,6-dihydropyridin-1(2H)-yl}carbonyl)-2-(3-methoxyphenyl)-9-methyl-7,9-dihydro-8H-purine-8-one] | 0.007 | 101 | – | –
12 | COc1cccc(-c2ncc3c(n2)n(C)c(=O)n3C(=O)N2CC=C(/C=C/c3ccc(F)cc3)CC2)c1 [Example 95, 7-({4-[(E)-2-(4-Fluorophenyl)ethenyl]-3,6-dihydropyridin-1(2H)-yl}carbonyl)-2-(3-methoxyphenyl)-9-methyl-7,9-dihydro-8H-purine-8-one] | 0.003 | 101 | – | –

Now from value to compound, other results behind:

Row | IC50 [1] [µM] | inhibition at 0.1 µM [2] [%] | Compound | inhibition at 0.1 µM [%] | IC50 (FAAH Inhibition IC50, rat brain membrane preparations) [µM]
13 | 0.01 | 108 | COc1cccc(-c2ncc3c(n2)n(C)c(=O)n3C(=O)N(C)Cc2ccc(Cl)cc2)c1 [Example 78, N-(4-Chlorobenzyl)-2-(3-methoxyphenyl)-N,9-dimethyl-8-oxo-8,9-dihydro-7H-purine-7-carboxamide] | – | –
14 | 0.051 | 87 | COc1cccc(-c2ncc3c(n2)n(C)c(=O)n3C(=O)N(C)Cc2cccc(Cl)c2)c1 [Example 79, N-(3-Chlorobenzyl)-2-(3-methoxyphenyl)-N,9-dimethyl-8-oxo-8,9-dihydro-7H-purine-7-carboxamide] | – | –
15 | 0.044 | 92 | COc1ccc(CN(C)C(=O)n2c(=O)n(C)c3nc(-c4cccc(OC)c4)ncc32)cc1 [Example 80, N-(4-Methoxybenzyl)-2-(3-methoxyphenyl)-N,9-dimethyl-8-oxo-8,9-dihydro-7H-purine-7-carboxamide] | – | –
16 | 0.011 | 94 | COc1cccc(-c2ncc3c(n2)n(C)c(=O)n3C(=O)N(C)Cc2ccc(C(F)(F)F)cc2)c1 [Example 81, 2-(3-Methoxyphenyl)-N,9-dimethyl-8-oxo-N-[4-(trifluoromethyl)benzyl]-8,9-dihydro-7H-purine-7-carboxamide] | – | –
17 | 0.036 | 90 | COc1cccc(-c2ncc3c(n2)n(C)c(=O)n3C(=O)N(C)Cc2cccc(C(F)(F)F)c2)c1 [Example 82, 2-(3-Methoxyphenyl)-N,9-dimethyl-8-oxo-N-[3-(trifluoromethyl)benzyl]-8,9-dihydro-7H-purine-7-carboxamide] | – | –
18 | 0.025 | 93 | COc1cccc(-c2ncc3c(n2)n(C)c(=O)n3C(=O)N(C)Cc2ccc(OC(F)(F)F)cc2)c1 [Example 83, 2-(3-Methoxyphenyl)-N,9-dimethyl-8-oxo-N-[4-(trifluoromethoxy)benzyl]-8,9-dihydro-7H-purine-7-carboxamide] | – | –
19 | 0.043 | 93 | COc1cccc(-c2ncc3c(n2)n(C)c(=O)n3C(=O)N(C)Cc2ccccc2)c1 [Example 88, N-Benzyl-2-(3-methoxyphenyl)-N,9-dimethyl-8-oxo-8,9-dihydro-7H-purine-7-carboxamide] | – | –
20 | 0.002 | 105 | COc1cccc(-c2ncc3c(n2)n(C)c(=O)n3C(=O)N(C)CCOc2cccc(Cl)c2)c1 [Example 90, N-[2-(3-Chlorophenoxy)ethyl]-2-(3-methoxyphenyl)-N,9-dimethyl-8-oxo-8,9-dihydro-7H-purine-7-carboxamide] | – | –
21 | 0.001 | 103 | COc1cccc(-c2ncc3c(n2)n(C)c(=O)n3C(=O)N(C)CCOc2ccc(F)cc2)c1 [Example 91, N-[2-(4-Fluorophenoxy)ethyl]-2-(3-methoxyphenyl)-N,9-dimethyl-8-oxo-8,9-dihydro-7H-purine-7-carboxamide] | – | –
